In ChEMBL document CHEMBL1146684, “An electrochemical device for the assay of the interaction between a dioxin receptor and its various ligands” (Bioorg Med Chem Lett, 2004) one finds Activity data, which are given here for three compounds.

The data set addresses T1, Aryl hydrocarbon receptor (Homo sapiens, UniProt P35869).
T1 sequence (P35869 whole entry): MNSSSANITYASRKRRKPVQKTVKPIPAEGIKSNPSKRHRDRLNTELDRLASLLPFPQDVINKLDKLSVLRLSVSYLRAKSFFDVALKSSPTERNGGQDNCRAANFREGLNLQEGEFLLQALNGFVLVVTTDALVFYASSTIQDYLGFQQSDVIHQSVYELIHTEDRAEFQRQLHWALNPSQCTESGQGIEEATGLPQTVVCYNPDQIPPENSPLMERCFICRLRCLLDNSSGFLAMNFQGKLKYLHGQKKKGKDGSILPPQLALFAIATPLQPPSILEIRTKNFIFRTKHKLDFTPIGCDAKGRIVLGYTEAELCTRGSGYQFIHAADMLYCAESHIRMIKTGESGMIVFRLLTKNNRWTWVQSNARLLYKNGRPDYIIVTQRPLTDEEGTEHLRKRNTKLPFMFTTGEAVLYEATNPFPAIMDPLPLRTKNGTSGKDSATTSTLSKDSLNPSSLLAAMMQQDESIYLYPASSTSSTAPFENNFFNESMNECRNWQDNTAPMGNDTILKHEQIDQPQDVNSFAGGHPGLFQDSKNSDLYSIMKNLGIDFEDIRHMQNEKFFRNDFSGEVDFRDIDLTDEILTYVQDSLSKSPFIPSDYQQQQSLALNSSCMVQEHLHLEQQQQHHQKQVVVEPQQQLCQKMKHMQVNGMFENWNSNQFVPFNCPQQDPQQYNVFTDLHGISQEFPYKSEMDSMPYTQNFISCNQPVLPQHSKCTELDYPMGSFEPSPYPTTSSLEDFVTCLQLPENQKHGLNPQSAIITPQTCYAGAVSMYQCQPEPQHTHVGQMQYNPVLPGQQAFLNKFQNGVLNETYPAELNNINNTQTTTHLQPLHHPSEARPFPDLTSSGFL
The experiment in a line: Compound tested for its binding to human Orphan receptor (AhR); Active.

As for `c1ccc2c(c1)cc1ccc3cccc4ccc2c1c34` [BENZO[DEF]CHRYSENE], the result was Active. For `Clc1cc2c(cc1Cl)Oc1cc(Cl)c(Cl)cc1O2` [2,3,7,8-TETRACHLORODIBENZO-P-DIOXIN], the result was Active. Turning to `O=c1cc(-c2ccccc2)oc2ccc3ccccc3c12` [BETA-NAPHTHOFLAVONE], the outcome was Active.
